The source of these data is patent US4672036A, “Pure cultures of Kibdelsporangium aridum Shearer gen. nov., sp. nov. ATCC 39323 and mutants thereof” (SmithKline Beckman Corporation, priority 1985, dated 1987).

Several values for one entry are separate records, joined by “and”; a condition that tells them apart may be missing. Equal entries are not always repeated. Where two headings read alike, the source gives them in different places. Where a SMILES comes first, the peptide text is derived from it. Bridges are numbered along the chain shown (N, C = ends). [ ]: non-standard residue; d: D form. The star is where a group is joined. Ileψ(thiazoline)Cys = CC[C@H](C)[C@H](N)C1=N[C@H](C(=O)*)CS1; dOrn = NCCC[C@@H](N)C(=O)O

The zone of inhibition is the extent of the growth-free halo in a diffusion test. Higher therefore signals a stronger effect on the plate.

One test relates to K. aridum. Kind of test: susceptibility of K. aridum to antibiotics, disk diffusion method. In kind it is cell-based, Kibdelosporangium aridum. The conditions noted are these: for zone of inhibition at 5 µg/disc: Kibdelosporangium aridum, 168 h. As for the experimental part:
Susceptibility of K. aridum to antibiotics was examined by placing BBL susceptibility disks on nutrient agar plates seeded with K. aridum as an overlay. Diameters of the zones of inhibition were measured after incubation for one week at 28° C.
Chlortetracycline ([…]) produced 18 mm zones of inhibition; tetracycline (5 μg) 11-12 mm zones; rifampin (5 μg) 11-15 mm zones; novobiocin (5 μg) 27-28 mm zones. All zones of inhibition contained at least a few resistant colonies.
On the technique in general: In agar diffusion tests the substance spreads into inoculated agar from a disc or well.

In test [1] the test system is rumen in vitro model. Kind of test: rumen in vitro model (growth promotant activity). The arrangement: species or system steer. As for the experimental part:
The protocol for the rumen in vitro model is analogous to the protocol for the swine in vitro model with the following modifications:
(1) A 400 kg steer is surgically prepared with a rumen cannula.
(2) The animal is fed one time a day with the following ration:
(3) Manipulation of VFA production is described as the production ratio of propionate as a percentage of total VFA produced.
(4) Sampling of the material, via the cannula, is at 120 minutes post feeding.

For test [2], the system named is rumen in vitro model. As to the kind of experiment: rumen in vitro model (growth promotant activity). On the set-up: species or system steer. The source holds these as a separate data set.
In the next test the test system is Swine in vitro model. As to the kind of experiment: swine in vitro model (growth promotant activity).
The conditions of test [3]: rye diet; for Feed/Gain 3-10: days 3-10; for Feed/Gain 3-17: days 3-17; for Feed/Gain 10-17: days 10-17.

For `CN(C)[C@@H]1C(O)=C(C(N)=O)C(=O)[C@@]2(O)C(O)=C3C(=O)c4c(O)ccc(Cl)c4[C@@](C)(O)[C@H]3C[C@@H]12` [Chlortetracycline], the zone of inhibition at 5 µg/disc in the test on K. aridum worked out at 18 mm.

Consider `CC[C@@]1([C@H]2O[C@H]([C@H]3O[C@@](O)(CO)[C@H](C)C[C@@H]3C)C[C@H]2C)CC[C@H]([C@@]2(C)CC[C@]3(C[C@H](O)[C@@H](C)[C@@H]([C@H](C)[C@H](OC)[C@@H](C)C(=O)O)O3)O2)O1` [Monensin Sodium], for which, in the test with rumen in vitro model [1], the Propionate % is 156 % Control and 149 % Control and 119 % Control; the “VFA (total of volatile fatty acids)” value was 104 % Control and 94 % Control. Besides, the “LYS (lysine)” value in the test on rumen in vitro model [2] is 147 % Control and 141 % Control.

Consider `CC[C@H](C)[C@H](N)C1=N[C@H](C(=O)N[C@@H](CC(C)C)C(=O)N[C@H](CCC(=O)O)C(=O)N[C@H](C(=O)N[C@H]2CCCCNC(=O)[C@H](CC(N)=O)NC(=O)[C@@H](CC(=O)O)NC(=O)[C@H](Cc3cnc[nH]3)NC(=O)[C@@H](Cc3ccccc3)NC(=O)[C@H]([C@@H](C)CC)NC(=O)[C@@H](CCCN)NC2=O)[C@@H](C)CC)CS1` [bacitracin] ({Ileψ(thiazoline)Cys}-L[dE]IK[dOrn]I[dF]H[dD]N; lactam 4-C), for which, in the test on K. aridum (disk 2 units), the “susceptibility of K. aridum” value is “resistant”.

Take `CC(=O)OCC1=C(C(=O)O)N2C(=O)[C@@H](NC(=O)Cc3cccs3)[C@H]2SC1` [cephalothin]: the “susceptibility of K. aridum” value in the test with K. aridum (disk 30 μg) is “resistant”.

For the compound `CCC[C@@H]1C[C@@H](C(=O)N[C@@H]([C@H]2O[C@H](SC)[C@H](O)[C@@H](O)[C@H]2O)[C@H](C)Cl)N(C)C1` [clindamycin], the “susceptibility of K. aridum” value with K. aridum (disk 2 μg) is reported as “resistant”.

On to `CCC[C@@H]1C[C@@H](C(=O)N[C@@H]([C@H]2O[C@H](SC)[C@H](O)[C@@H](O)[C@H]2O)[C@@H](C)O)N(C)C1` [lincomycin], for which the “susceptibility of K. aridum” value in the test on K. aridum (disk 2 μg) is given as “resistant”.

`CO[C@@H]1[C@@H](OC(N)=O)[C@@H](O)[C@H](Oc2ccc3c(O)c(NC(=O)c4ccc(O)c(CC=C(C)C)c4)c(=O)oc3c2C)OC1(C)C` [novobiocin] showed a zone of inhibition at 5 µg/disc in the test with K. aridum of 27 to 28 mm.

As for `CC1(C)S[C@@H]2[C@H](NC(=O)Cc3ccccc3)C(=O)N2[C@H]1C(=O)O` [penicillin], the “susceptibility of K. aridum” value in the test with K. aridum (disk 10 units) is “resistant”.

The compound `CO[C@H]1/C=C/O[C@@]2(C)Oc3c(C)c(O)c4c(O)c(c(/C=N/N5CCN(C)CC5)c(O)c4c3C2=O)NC(=O)/C(C)=C\C=C\[C@H](C)[C@H](O)[C@@H](C)[C@@H](O)[C@@H](C)[C@H](OC(C)=O)[C@@H]1C` [rifampin] displayed a zone of inhibition at 5 µg/disc with K. aridum of 11 to 15 mm.

Turning to `[H]/N=C(/N)N[C@H]1[C@H](O)[C@@H](O)[C@H](O[C@@H]2O[C@@H](C)[C@](O)(C=O)[C@H]2O[C@@H]2O[C@@H](CO)[C@H](O)[C@@H](O)[C@@H]2NC)[C@@H](N/C(N)=N\[H])[C@@H]1O` [streptomycin], the “susceptibility of K. aridum” value in the test with K. aridum (disk 10 μg) is “resistant”.

In the case of `CN(C)C1C(=O)C(C(N)=O)=C(O)C2(O)C(=O)C3=C(O)c4c(O)cccc4C(C)(O)C3CC12` (stereo not shown) [tetracycline], in the test with K. aridum, the zone of inhibition at 5 µg/disc fell in the range of 11 to 12 mm.

Take `NC[C@H]1O[C@H](O[C@H]2[C@H](O)[C@@H](O[C@H]3O[C@H](CO)[C@@H](O)[C@H](N)[C@H]3O)[C@H](N)C[C@@H]2N)[C@H](N)C[C@@H]1O` [tobramycin]: the “susceptibility of K. aridum” value in the test with K. aridum (disk 10 μg) is on record as “resistant”.

Regarding Avoparcin, the results for the “GLU (glucose)” value with rumen in vitro model [1] (0.5 ppm), with rumen in vitro model [1] (5.0 ppm) and in the test with rumen in vitro model [1] (50.0 ppm) were 116 % Control, 166 % Control and 141 % Control, respectively. For the same compound, the Propionate % with rumen in vitro model [1] (0.5 ppm) is 106 % Control; in the test on rumen in vitro model [1] (5.0 ppm), 121 % Control; in the test on rumen in vitro model [1] (50.0 ppm) it was 132 % Control.

Virginiamycin: in the test on Swine in vitro model, the “LAC (L-lactic acid)” value was found to be 81 % Control. In addition, in the test with Swine in vitro model (1.67 ppm), the “GLU (glucose)” value is 182 % Control, the “LAC (L-lactic acid)” value was 70 % Control and the “LYS (lysine)” value was 82 % Control. For the same compound, in the test on Swine in vitro model (16.67 ppm), the “GLU (glucose)” value amounted to 191 % Control, the “LAC (L-lactic acid)” value is recorded as 76 % Control and the “LYS (lysine)” value is given as 127 % Control. In the test on Swine in vitro model (166.67 ppm), the “GLU (glucose)” value is 197 % Control and the “LYS (lysine)” value was determined as 163 % Control. Further, in test [3] (10.0 PPM), the “Weight Day 10” value is 103.8 % of Control, the “Weight Day 17” value is 116.0 % of Control, the “Feed/Gain 3-10” value is listed as 97.4 % of Control and the “Feed/Gain 3-17” value was 90.4 % of Control. In addition, the “Feed/Gain 10-17” value in test [3] (10.0 PPM) is 83.6 % of Control. For the same compound, in test [3] (50.0 PPM), the “Weight Day 10” value was 105.0 % of Control, the “Weight Day 17” value is 121.3 % of Control, the “Feed/Gain 3-10” value is on record as 93.2 % of Control and the “Feed/Gain 3-17” value is 83.2 % of Control. Also, the “Feed/Gain 10-17” value in test [3] (50.0 PPM) is given as 74.6 % of Control.

Take gentamicin: the “susceptibility of K. aridum” value in the test with K. aridum (disk 10 μg) was “resistant”.
